Measured values taken from patent publication US20050272040A1, “Method for increasing synaptic growth or plasticity” (priority 2002, published 2005).

Legend:
Format in all cases: cell-based, rat
hippocampal cells [1] = assay: Whole-cell patch-clamp recordings of synaptic charge; details: for Effect on synaptic charge: perfusion of synthetic rat VGF peptide, 0.1 μM
Protocol: To examine the relationship between synaptic response and gene expression, an individual cell's electrophysiological response to BDNF was examined in conjunction with single-cell RT-PCR for Arc. […] Whole-cell patch-clamp recordings from 16 cells verified 0.8- to 4.5-fold increase in synaptic charge following 20 minutes BDNF exposure. […] A group of BDNF-treated cells presenting a minimal synaptic response was apparent. This group was categorized as non-responders (FIG. 1B) and the other cells showing a greater response to BDNF were classified as responders. To determine whether cellular basal activity influences the response to BDNF, the average synaptic charge pre-BDNF of the responders (36±13.1 pC, n=7) versus the non-responders (23.2±6.6 pC, n=9) was compared.
To explore a functional role for VGF in neuromodulation, whole-cell patch-clamp recordings on hippocampal cells were performed in the presence of synthetic VGF peptides. The electrophysiological profile of VGF peptides on hippocampal cells was similar to that observed for BDNF (Levine et al. (1996) supra). […] Enhanced synaptic activity was maintained for up to 25 minutes in the continued presence of Thr-Leu-Gln-Pro-62 (SEQ ID NO:14). […] The effects of both Ala-Gln-Glu-Glu-30 (SEQ ID NO:16) and Thr-Leu-Gln-Pro-62 (SEQ ID NO:14) peptides were dose-dependent, saturating at 0.1 μM.
Whole-cell patch clamp recordings were performed after 10-14 days in culture. Currents were recorded with an Axoclamp 200 amplifier, digitized at 2.5 kHz with an INDEC IDA 15125 interface, filtered at 5 kHz and stored. Recording parameters and stimulus protocols were controlled by custom software written with Borland C++ that utilizes device driver libraries supplied by INDEC. Data analysis programs were written with Microsoft Visual Basic. The. external bath solution for voltage clamp recordings was (in mM) 1.67 CaCl2, 1 MgCl2, 5.36 KCl, 137 NaCl, 17 glucose, 10 HEPES and 20 sucrose (neuron recording solution, NRS). The pipette solution contained (in mM) 105 Cs-methanesulfonate, 17.5 CsCl, 10 HEPES, 0.2 EGTA, 8 NaCl, 2 Mg-ATP, 2 Na-ATP, 0.3 Na-GTP, 20 phosphocreatinine, and 50 U/ml creatinine phosphokinase. All recordings were made at room temperature. The typical range of pipette resistance was 3-5 MΩ. Cell capacitance was 10-20 pF and access resistance was 7-20 MΩ. Vacuum perfusion system contained BDNF (50 ng/ml, Preprotech, Princeton, N.J.), NRS as a control or VGF peptides (0.1 μM=740 ng/ml). Three synthetic rat VGF peptides were used: Leu-Glu-Gly-Ser-28 (SEQ ID NO:15) amino acids 285-312 (amidated), Thr-Leu-Gln-Pro-62 (SEQ ID NO:14) amino acids 556-617 and Ala-Gln-Glu-Glu-30 (SEQ ID NO:16) amino acids 588-617. Each data point represents a cell from a separate dish and at least three different platings were used for each condition.
Data were analyzed by integrating the synaptic currents for each sweep (synaptic charge). The charge measurements for all sweeps in a 1 min period were averaged (binned). Baseline is considered the average synaptic charge during the 2 min period (−2 to 0 min) in NRS immediately prior to BDNF or VGF application. Fold increases were then determined by dividing the synaptic charge during BDNF or VGF exposure by the baseline. Recordings were rejected if either the 0-5 min binned time period or 5-10 min binned time period after switching during BDNF or VGF exposure was 2×SEM below baseline, indicating “run down”.

Hippocampal neurons = assay: Effect of inhibitors on BDNF-induced gene transcription (real time RT-PCR); details: for Effect of inhibitor on BDNF-induced VGF transcription / Effect of inhibitor on BDNF-induced Arc transcription / Effect of inhibitor on BDNF-induced EGR-1 transcription / Effect of inhibitor on BDNF-induced c-fos transcription: 30 min pre-incubation, K252a 200 nM, U0126 30 μM, PD98059 50 μM, U73122 10 μM, KN93 10 μM, LY294002 30 μM, H-89 1 μM, CC 1 μM; for Effect of inhibitor on BDNF-induced VGF transcription: BDNF 3 Hours; for Effect of inhibitor on BDNF-induced Arc transcription / Effect of inhibitor on BDNF-induced EGR-1 transcription / Effect of inhibitor on BDNF-induced c-fos transcription: BDNF 20 Minutes; for Effect on BDNF-induced transcription of the immediate early genes and VGF: BDNF 20 min for immediate early genes, 3 hr for VGF
Protocol: Signaling cascades involved in BDNF-mediated synaptic strengthening include mitogen-activated protein (MAP) kinase, phospholipase C-γ (PLC-γ) and phosphoinositide-3 kinase (PI3K) (Gottschalk et al. (1999) supra; Minichiello et al. (2002) supra; Ying et al. (2002); Mizuno et al. (2003) supra). To determine whether these transduction pathways are also required for BDNF transcriptional regulation of immediate early genes at 20 minutes and for VGF at 3 hours, pharmacological inhibitors were employed (Table 2).
Effect of inhibitors on BDNF-induced gene transcription. The regulation of BDNF-induced genes in the presence of inhibitors was determined by real time RT-PCR. Neurons were pre-incubated with inhibitors for 30 minutes prior to BDNF treatment (20 minutes for immediate early genes and 3 hours for VGF). […] “blocked” indicates significant reduction of transcription in the presence of inhibitor plus BDNF relative to BDNF alone (p<0.05, ANOVA, n=3).
Each experiment consisted of four groups: vehicle, inhibitor alone, BDNF, BDNF plus inhibitor. Data were normalized to GAPDH and expressed as a fold change of vehicle control.
(§1) cDNA (100 μl) was prepared from 2 μg control or BDNF-treated RNA using random primers and Superscript II reverse transcriptase. 25 μl PCR reactions were then carried out using gene specific primers designed by Primer Express software and TaqMan MGB probes (Applied Biosystems 7000 Sequence Detection System, Foster City, Calif.). Duplicate wells were included for each condition and primer pair. Primers specific to the housekeeping gene, glyceraldehyde-3-phosphate dehydrogenase (GAPDH) were used as an internal control. Data analysis was performed according to the protocol provided by Applied Biosystems.
Hippocampal neurons were pre-incubated with inhibitors for 30 min prior to BDNF treatment (20 min for IEGs and 3 hr for VGF). All inhibitors were purchased from Calbiochem, San Diego, Calif. K252a (200 nM), U0126 (30 μM), PD98059 (50 μM), U73122 (10 μM), KN93 (10 μM), LY294002 (30 μM), H-89 (1 μM) and chelerythrine chloride (CC, 1 μM). Pharmacological inhibitors were tested for efficacy by assaying downregulation of endogenous kinase phosphorylation in cell culture using Western blot (Y. Z. Du and C. F. Dreyfus, personal communication). Each experiment consisted of 4 groups: vehicle, inhibitor alone, BDNF, and BDNF plus inhibitor. Following inhibitor and BDNF treatments, RNA was isolated and subjected to real time RT-PCR as described above.

hippocampal cells [2] = assay: Real-time RT-PCR of genes induced by neurotrophin treatment of hippocampal cultures; set-up: key to NGF effect on Fra2 transcription / NGF effect on CyclinD1 transcription / NGF effect on c-fos transcription / NGF effect on Kv + 1.1 transcription / NGF effect on Na + ch transcription / NGF effect on SgII transcription / NGF effect on SSTR4 transcription / NGF effect on UNC5H2 transcription / NGF effect on NPY transcription / NGF effect on VGF transcription / NGF effect on EGR1 transcription / NGF effect on PTP1B transcription / NGF effect on Arc transcription: UC = unchanged; DOWN: down = decreased
Protocol: The molecular genetics underlying BDNF-evoked plasticity were examined by expression profiling using cDNA microarrays on a population of hippocampal cells in vitro. Synaptic effects of BDNF are observed within 20 minutes of exposure (Levine et al. (1996) supra; Lessmann and Heumann (1998) supra; Schinder et al. (2000) supra). A 3-hour BDNF treatment has been used to identify several genes with roles in synaptic plasticity (Thakker-Varia et al. (2001) supra). Consequently, to reveal immediate, as well as downstream transcriptional changes, both acute (20 minutes) and longer treatment (3 hours) with BDNF were used herein. […] Two independent Atlas arrays were performed using RNA from hippocampal cells treated for either 20 minutes or 3 hours of BDNF (50 ng/mL) and control sister cultures.
Of those genes selected, the regulation of 7% at 20 minutes and 40% at 3 hours were validated, although the magnitude of regulation was not always identical to that observed on the microarray. To focus on genes specifically involved in plasticity, a related neurotrophin, nerve growth factor (NGF), not inducing synaptic plasticity (Levine et al. (1996) supra), served as a control.
Time-mated pregnant rats were sacrificed by CO2 asphyxiation in accordance with institutional guidelines for care and use of animals. Fetuses were removed by caesarean section and transferred to a sterile petri dish with phosphate-buffered saline. Fetal hippocampi were dissected from surrounding brain tissue and meninges were completely removed. Low-density cultures of dissociated embryonic day 18 rat hippocampi (Sprague Dawley from Hilltop Laboratories, Scottsdale, Pa.) were prepared using standard methods (Thakker-Varia et al. (2001) supra). Briefly, pooled tissue from each litter was mechanically dissociated in nutrient medium containing 7.5% fetal bovine serum and plated on poly-D-lysine-coated culture dishes at 350,000 cells/dish. Cultures were maintained in serum-free medium (Thakker-Varia et al., 2001) for 10-14 days and contained pure neurons.
Total cellular RNA was prepared from neuronal cultures treated with either BDNF (50 ng/ml) or vehicle (water) for either 20 min or 3 hr by the guanidine isothiocyanate method and CsCl gradients (Thakker-Varia et al., 2001). DNAse-treated total RNA was prepared from neurotrophin or control hippocampal cultures and reverse transcribed using gene specific primers. Radioactively labeled probes were then hybridized to Atlas Arrays Rat 1.2 (Clontech, Palo Alto, Calif.) according to manufacturer's protocol. Arrays were performed in duplicate with an independent source of RNA. The hybridization pattern was analyzed on a phosphorimager and normalized to the global hybridization signal. Analysis was performed by Clontech using 1.7-fold change as criteria for significance. All transcriptional changes were confirmed by real time RT-PCR on independent samples (see below).
as §1

[3] = NGF as control neurotrophin, 20 minute section of Table 1
[4] = NGF as control neurotrophin, 3 hour section of Table 1

Compound	Effect of inhibitor on BDNF-induced VGF transcription (Hippocampal neurons)	Effect of inhibitor on BDNF-induced Arc transcription (Hippocampal neurons)	Effect of inhibitor on BDNF-induced EGR-1 transcription (Hippocampal neurons)	Effect of inhibitor on BDNF-induced c-fos transcription (Hippocampal neurons)	Effect on BDNF-induced transcription of the immediate early genes and VGF (Hippocampal neurons)	other results
Thr-Leu-Gln-Pro-62: synthetic rat VGF peptide, amino acids 556-617, C-terminal portion of VGF (TLQP)	–	–	–	–	–	Saturating concentration of dose-dependent effect on synaptic charge (hippocampal cells [1]): 0.1 µM; Time to increased synaptic charge (hippocampal cells [1]; after start of peptide perfusion): ≤ 5 min; Time enhanced synaptic activity was maintained (hippocampal cells [1]; continued presence of peptide): up to 25 minutes; Effect on synaptic charge (hippocampal cells [1]): Increased synaptic charge
N#CC(=C(/N)Sc1ccccc1N)/C(C#N)=C(\N)Sc1ccccc1N [U0126]	Blocked	Blocked	Blocked	Blocked	blocked	–
O=S(=O)(NCCNC/C=C/c1ccc(Br)cc1)c1cccc2cnccc12 [H-89]	–	–	–	–	did not affect gene expression	–
COc1ccc(S(=O)(=O)N(CCO)c2ccccc2CN(C)C/C=C/c2ccc(Cl)cc2)cc1 [KN93]	Blocked	Blocked	Blocked	Blocked	blocked	–
Leu-Glu-Gly-Ser-28: synthetic rat VGF peptide, amino acids 285-312 (amidated), N-terminal region	–	–	–	–	–	Effect on synaptic charge (hippocampal cells [1]): no change in synaptic charge
COc1cccc(-c2cc(=O)c3ccccc3o2)c1N [PD98059]	Blocked	Blocked	Blocked	Blocked	blocked	–
NGF: related neurotrophin, nerve growth factor, not inducing synaptic plasticity, served as a control	–	–	–	–	–	Effect of NGF on transcription of BDNF-induced genes (hippocampal cells [2]): did not affect transcription of most genes; NGF effect on Arc transcription (hippocampal cells [2]; [3]): UC; NGF effect on EGR1 transcription (hippocampal cells [2]; [3]): UC; NGF effect on c-fos transcription (hippocampal cells [2]; [3]): UC; NGF effect on Arc transcription (hippocampal cells [2]; [4]): UC; NGF effect on CyclinD1 transcription (hippocampal cells [2]; [4]): UC; NGF effect on EGR1 transcription (hippocampal cells [2]; [4]): UC; NGF effect on Fra2 transcription (hippocampal cells [2]; [4]): DOWN; NGF effect on Kv + 1.1 transcription (hippocampal cells [2]; [4]): UC; NGF effect on NPY transcription (hippocampal cells [2]; [4]): DOWN; NGF effect on Na + ch transcription (hippocampal cells [2]; [4]): UC; NGF effect on PTP1B transcription (hippocampal cells [2]; [4]): UC; NGF effect on SSTR4 transcription (hippocampal cells [2]; [4]): DOWN; NGF effect on SgII transcription (hippocampal cells [2]; [4]): UC; NGF effect on UNC5H2 transcription (hippocampal cells [2]; [4]): UC; NGF effect on VGF transcription (hippocampal cells [2]; [4]): UC; NGF effect on c-fos transcription (hippocampal cells [2]; [4]): UC
COC(=O)[C@@]1(O)C[C@H]2O[C@]1(C)n1c3ccccc3c3c4c(c5c6ccccc6n2c5c31)C(=O)NC4 [K252a]	Blocked	Blocked	Blocked	Blocked	blocked	–
COc1ccc2c(c1)CC[C@@H]1[C@@H]2CC[C@]2(C)[C@@H](NCCCCCCN3C(=O)C=CC3=O)CC[C@@H]12 [U73122]	Blocked	Blocked	–	Blocked	blocked	–
